{"source": "paper PMC9000250", "about": "“Computational Methods for Understanding the Selectivity and Signal Transduction Mechanism of Aminomethyl Tetrahydronaphthalene to Opioid Receptors” (Molecules, 2022)", "key": {"human MOR [1]": {"target": "T1, human MOR (Homo sapiens, UniProt P35372)", "T1 sequence (P35372 whole entry)": "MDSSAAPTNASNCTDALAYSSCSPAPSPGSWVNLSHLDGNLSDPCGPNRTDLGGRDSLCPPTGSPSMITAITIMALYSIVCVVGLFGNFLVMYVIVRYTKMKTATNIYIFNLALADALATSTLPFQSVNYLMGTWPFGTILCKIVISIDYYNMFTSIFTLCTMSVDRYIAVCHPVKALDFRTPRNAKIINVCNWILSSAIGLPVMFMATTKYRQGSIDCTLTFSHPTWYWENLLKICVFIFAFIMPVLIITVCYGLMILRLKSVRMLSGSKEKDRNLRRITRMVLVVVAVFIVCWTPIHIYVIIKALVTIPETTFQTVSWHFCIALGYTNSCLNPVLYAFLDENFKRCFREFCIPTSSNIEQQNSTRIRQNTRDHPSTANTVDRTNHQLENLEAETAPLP", "assay": "[35S]GTP-γ-S functional assay, CHO cell membranes", "assay_type": "biochemical", "details": "stimulation of [35S]GTPγS binding; NA = no activity", "experimental": "In a final volume of 0.5 mL, various concentrations of each tested compound were incubated with […] (μ) of CHO cell membranes that stably expressed the human MOR. The assay buffer consisted of 50 mM Tris-HCl, pH 7.4, 3 mM MgCl2, 0.2 mM EGTA, […] and 100 mM NaCl. The final concentration of [^35S]GTP-γ-S was 0.08 nM. Nonspecific binding was measured by the inclusion of […] GTP-γ-S. Binding was initiated by the addition of the membranes. After an incubation period of 60 min at 30 °C, the reactions were terminated by rapid filtration, and the radioactivity was determined by liquid scintillation counting."}, "human MOR [2]": {"target": "T1, human MOR", "assay": "Radioligand binding assay, displacement of [3H]DAMGO from CHO cell membranes"}, "KOR [3]": {"target": "T2, KOR (Homo sapiens, UniProt P41145)", "T2 sequence (P41145 whole entry)": "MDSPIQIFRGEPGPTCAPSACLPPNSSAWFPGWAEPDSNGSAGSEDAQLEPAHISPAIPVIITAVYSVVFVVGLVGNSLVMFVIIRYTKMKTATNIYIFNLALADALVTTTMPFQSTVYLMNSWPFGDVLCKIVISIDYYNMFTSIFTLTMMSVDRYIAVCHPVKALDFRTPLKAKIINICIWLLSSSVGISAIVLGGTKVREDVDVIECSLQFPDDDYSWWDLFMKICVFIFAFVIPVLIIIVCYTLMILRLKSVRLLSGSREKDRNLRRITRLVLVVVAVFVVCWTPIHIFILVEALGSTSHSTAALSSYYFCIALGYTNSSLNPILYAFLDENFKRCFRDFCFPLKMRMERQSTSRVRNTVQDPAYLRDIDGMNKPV", "assay": "Radioligand binding assay, displacement of [3H]U69593 from CHO cells", "set-up": "host or cells: CHO cells, stably transfected; membranes", "details": "for inhibition at 1 µM: displacement of [3H]U69593 at 1.0 μM"}, "DOR [4]": {"target": "T3, DOR (Homo sapiens, UniProt P41143)", "T3 sequence (P41143 whole entry)": "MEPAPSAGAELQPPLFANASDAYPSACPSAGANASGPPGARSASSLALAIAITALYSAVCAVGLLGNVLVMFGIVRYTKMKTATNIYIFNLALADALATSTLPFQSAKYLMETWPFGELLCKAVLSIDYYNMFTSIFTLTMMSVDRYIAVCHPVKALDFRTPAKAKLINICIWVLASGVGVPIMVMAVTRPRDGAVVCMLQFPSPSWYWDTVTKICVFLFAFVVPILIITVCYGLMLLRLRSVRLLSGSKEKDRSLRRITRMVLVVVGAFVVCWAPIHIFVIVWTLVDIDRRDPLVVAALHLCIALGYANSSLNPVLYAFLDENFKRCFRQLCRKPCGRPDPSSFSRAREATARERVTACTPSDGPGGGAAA", "assay": "Radioligand binding assay, displacement of [3H]DPDPE from CHO cell membranes", "set-up": "host or cells: CHO cells, stably transfected; membranes", "details": "for activity / affinity for DOR, in words: in vitro; for Ki: [3H]DPDPE, CHO membranes, read-out: Ki (±SEM) DOR"}, "KOR [5]": {"target": "T2, KOR", "set-up": "expressed in transfected cells; method as in PMID 27096047", "details": "stimulation of [35S]GTPγS binding; NA = no activity; cited from earlier work"}, "KOR [6]": {"target": "T2, KOR", "set-up": "host or cells: CHO cells, stably transfected; membranes; method as in PMID 27096047", "details": "cited from earlier work; for Ki: read-out: Ki (±SEM) KOR"}, "DOR [7]": {"target": "T3, DOR", "set-up": "host or cells: CHO cells, stably transfected; membranes; method as in PMID 27096047"}, "human MOR [8]": {"target": "T1, human MOR", "set-up": "method as in PMID 27096047", "details": "cited from earlier work"}, "DOR [9]": {"target": "T3, DOR", "set-up": "expressed in transfected cells; method as in PMID 27096047", "details": "stimulation of [35S]GTPγS binding; NA = no activity; cited from earlier work"}}, "note": "Several values for one entry are separate records, joined by “and”; a condition that tells them apart may be missing. Equal entries are not always repeated. Where two headings read alike, the source gives them in different places.", "data": [{"smiles": "C[C@@H](NC(=O)[C@@H](N)Cc1ccc(O)cc1)C(=O)NCC(=O)N(C)[C@@H](Cc1ccccc1)C(=O)NCCO", "note": "[DAMGO]", "values": [{"measurement": "Emax", "setting": "human MOR [1]", "result": "205 ± 2.05", "unit": "%"}]}, {"smiles": "CN(C)CC1CCc2ccccc2C1(O)c1cccc(O)c1", "note": "(stereo not shown) [FW-1]", "values": [{"measurement": "activity for MOR, in words", "setting": "human MOR [2]; in vitro", "result": "not be active"}, {"measurement": "Ki", "setting": "human MOR [2]; read-out: Ki (±SEM) MOR", "result": "> 10000", "unit": "nM"}, {"measurement": "inhibition at 1 µM", "setting": "KOR [3]", "result": "56.3 ± 4.9", "unit": "%"}, {"measurement": "activity for KOR, in words", "setting": "KOR [3]; in vitro", "result": "not be active"}, {"measurement": "inhibition at 1 µM", "setting": "DOR [4]", "result": "21.7 ± 2.9", "unit": "%"}, {"measurement": "activity / affinity for DOR, in words", "setting": "DOR [4]", "result": "not be active"}]}, {"smiles": "CN(C)CC1CCc2cc(-c3ccccc3)ccc2C1(O)c1cccc(O)c1", "note": "(stereo not shown) [FW-AII-OH-1]", "values": [{"measurement": "EC50", "setting": "KOR [5]", "result": "580 ± 84", "unit": "nM"}, {"measurement": "KOR Emax%", "setting": "KOR [5]", "result": "187 ± 2", "unit": "%"}, {"measurement": "Ki", "setting": "KOR [6]", "result": "141 nM and 140 nM"}, {"measurement": "Inhibition (%) DOR", "setting": "DOR [7]; displacement of [3H]DPDPE at 1.0 μM; cited from earlier work", "result": "22.0 ± 1.0", "unit": "%"}, {"measurement": "Inhibition (%) MOR", "setting": "human MOR [8]; displacement of [3H]DAMGO at 1.0 μM", "result": "20 ± 1.0", "unit": "%"}]}, {"smiles": "COc1ccccc1-c1ccc2c(c1)CCC(CN(C)C)C2(O)c1cccc(O)c1", "note": "(stereo not shown) [FW-AII-OH-2]", "values": [{"measurement": "DOR Emax%", "setting": "DOR [9]", "result": "230 ± 7", "unit": "%"}, {"measurement": "EC50", "setting": "DOR [9]", "result": "9.3 ± 0.5", "unit": "nM"}, {"measurement": "Inhibition (%) KOR", "setting": "KOR [6]; displacement of [3H]U69593 at 1.0 μM", "result": "17.7 ± 0.1", "unit": "%"}, {"measurement": "Ki", "setting": "DOR [7]; [3H]DPDPE, CHO membranes; >10^4 = no binding affinity up to 10^4 nM; read-out: Ki (±SEM) DOR; cited from earlier work", "result": "4.64 nM and 4.7 nM"}, {"measurement": "Ki", "setting": "human MOR [8]; [3H]DAMGO, CHO membranes, >10^4 = no binding affinity up to 10^4 nM, read-out: Ki (±SEM) MOR", "result": "> 10000", "unit": "nM"}]}, {"smiles": "COc1ccccc1-c1ccc2c(c1)CCC(CN(C)CCc1ccccc1)C2(O)c1cccc(O)c1.Cl", "note": "(stereo not shown) [FW-DI-OH-2, 1-(3-hydroxyphenyl)-6-(2-methoxyphenyl)-2-((methyl(phenethyl)amino)methyl)-1,2,3,4-tetrahydronaphthalen-1-ol hydrochloride]", "values": [{"measurement": "melting point", "result": "200.2 to 202.4", "unit": "°C"}, {"measurement": "inhibition at 1 µM", "setting": "KOR [3]", "result": "30.1 ± 2.1", "unit": "%"}, {"measurement": "Ki", "setting": "DOR [4]", "result": "8.7 nM and 8.65 nM"}, {"measurement": "activity / affinity for DOR, in words", "setting": "DOR [4]", "result": "high affinitive"}]}, {"smiles": "CN(CCc1ccccc1)CC1CCc2cc(-c3ccccc3)ccc2C1(O)c1cccc(O)c1.Cl", "note": "(stereo not shown) [FW-DIII-OH-2, 1-(3-hydroxyphenyl)-2-((methyl(phenethyl)amino)methyl)-6-phenyl-1,2,3,4-tetrahydronaphthalen-1-ol hydrochloride]", "values": [{"measurement": "melting point", "result": "202.1 to 204.6", "unit": "°C"}, {"measurement": "inhibition at 1 µM", "setting": "KOR [3]", "result": "13.5 ± 0.1", "unit": "%"}, {"measurement": "Ki", "setting": "DOR [4]", "result": "228 nM and 229 nM"}, {"measurement": "activity / affinity for DOR, in words", "setting": "DOR [4]", "result": "moderate affinity"}]}, {"smiles": "CN(C)CC1CCCCC1(O)c1cccc(O)c1", "note": "(stereo not shown) [M1, reference compound]", "values": [{"measurement": "Emax", "setting": "human MOR [1]", "result": "226 ± 9", "unit": "%"}, {"measurement": "Ki", "setting": "KOR [6]; [3H]U69593, CHO cells, >10^4 = no binding affinity up to 10^4 nM", "result": "> 10000", "unit": "nM"}, {"measurement": "Ki", "setting": "DOR [7]; read-out: Ki (±SEM) DOR; [3H]DPDPE, CHO membranes; >10^4 = no binding affinity up to 10^4 nM; cited from earlier work", "result": "> 10000", "unit": "nM"}]}]}
